Assay [1] has as its target T1, FL-SMARCA2 (full-length human SMARCA2 isoform 1) (Homo sapiens, UniProt P51531).
T1 construct: FLAG tag (YKDDDDK) (C); made in house; host or cells: Sf21 insect cells (baculovirus, pFastBacI)
Kind of assay: SMARCA2 ATPase activity assay (ADP-Glo, chicken mononucleosome substrate). The format is biochemical. Particulars: ATPase assay, enzyme 5 nM, ATP 250 uM, chicken mononucleosome 10 nM, 30 min preincubation. Background: ADP-Glo first removes unused ATP, then detects ADP through luciferase.

For a further assay, the system named is H358 cells. Kind of assay: High-throughput proliferation (HTP) assay for H358 cells (CellTiter-Glo, 7 days). The format is cell-based. The following applies: Homo sapiens, NCI-H358, 168 h, read-out: H358 SMARCA2 IC50. Summed up:
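Cells were plated at 1,000 cells/well in RPMI 1640 + 10% HI-FBS + 1% pen/strep on pre-dispensed compound and incubated 7 days at 37 °C, 5% CO2. Viability was read as ATP luminescence with CellTiter-Glo after 30 min at RT. DMSO served as 0% and 10 µM doxorubicin as 100% inhibition for EC50/IC50.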
(In general: In ATP-based viability assays light output follows the ATP content of the culture.)

The next assay has as its target T2, SMARCA2 (Homo sapiens, UniProt P51531).
T2 construct: FLAG tag (YKDDDDK) (C); made in house; host or cells: Sf21 insect cells (baculovirus, pFastBacI)
Kind of assay: SMARCA2 FRET nucleosome remodeling activity assay. The format is biochemical.

The term IC50 denotes the midpoint of a concentration-inhibition curve.

Bounds are passed on as bounds.

T1 sequence (P51531 with tags, fused parts or gaps): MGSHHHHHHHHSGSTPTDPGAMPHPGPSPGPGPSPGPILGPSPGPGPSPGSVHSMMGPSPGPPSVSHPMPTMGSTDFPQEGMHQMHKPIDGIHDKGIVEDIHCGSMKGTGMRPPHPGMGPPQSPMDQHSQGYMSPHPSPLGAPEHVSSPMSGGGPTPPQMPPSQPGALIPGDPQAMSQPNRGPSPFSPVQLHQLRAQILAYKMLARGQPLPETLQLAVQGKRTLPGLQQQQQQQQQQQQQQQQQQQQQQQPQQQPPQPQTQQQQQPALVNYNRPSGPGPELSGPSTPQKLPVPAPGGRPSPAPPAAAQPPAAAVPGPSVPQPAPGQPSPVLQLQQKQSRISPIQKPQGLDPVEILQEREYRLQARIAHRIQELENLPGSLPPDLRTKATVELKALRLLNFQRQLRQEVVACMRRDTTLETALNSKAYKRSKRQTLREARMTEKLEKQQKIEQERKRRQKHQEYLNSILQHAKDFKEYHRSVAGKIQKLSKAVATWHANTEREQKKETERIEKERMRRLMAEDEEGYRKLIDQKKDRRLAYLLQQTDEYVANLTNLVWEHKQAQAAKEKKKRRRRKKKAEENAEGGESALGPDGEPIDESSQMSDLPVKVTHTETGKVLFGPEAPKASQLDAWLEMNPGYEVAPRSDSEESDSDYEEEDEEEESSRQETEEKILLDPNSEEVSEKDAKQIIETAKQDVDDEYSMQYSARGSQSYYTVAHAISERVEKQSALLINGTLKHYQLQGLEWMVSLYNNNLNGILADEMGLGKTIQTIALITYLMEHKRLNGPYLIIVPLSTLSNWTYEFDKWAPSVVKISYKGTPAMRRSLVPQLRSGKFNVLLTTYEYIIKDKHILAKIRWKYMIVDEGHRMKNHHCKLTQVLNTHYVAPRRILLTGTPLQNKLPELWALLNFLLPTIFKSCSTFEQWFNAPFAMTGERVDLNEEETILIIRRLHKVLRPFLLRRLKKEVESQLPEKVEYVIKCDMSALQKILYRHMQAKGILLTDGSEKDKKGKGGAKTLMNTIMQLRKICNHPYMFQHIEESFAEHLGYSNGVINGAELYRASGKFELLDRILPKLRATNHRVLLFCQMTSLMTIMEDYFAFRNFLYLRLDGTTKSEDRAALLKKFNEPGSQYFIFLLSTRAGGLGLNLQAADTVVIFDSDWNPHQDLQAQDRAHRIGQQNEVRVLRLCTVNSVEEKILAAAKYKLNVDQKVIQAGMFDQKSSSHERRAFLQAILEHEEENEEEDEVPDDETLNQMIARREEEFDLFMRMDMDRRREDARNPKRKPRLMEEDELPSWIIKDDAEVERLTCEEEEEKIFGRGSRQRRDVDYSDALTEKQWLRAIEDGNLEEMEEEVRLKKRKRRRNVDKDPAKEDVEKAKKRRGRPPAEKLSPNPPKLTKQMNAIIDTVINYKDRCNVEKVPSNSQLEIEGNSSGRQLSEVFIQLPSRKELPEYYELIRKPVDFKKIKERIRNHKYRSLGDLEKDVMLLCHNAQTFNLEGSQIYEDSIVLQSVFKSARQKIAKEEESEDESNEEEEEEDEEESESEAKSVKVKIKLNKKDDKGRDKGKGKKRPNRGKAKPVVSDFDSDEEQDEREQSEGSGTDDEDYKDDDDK
T2 sequence (P51531 with tags, fused parts or gaps): as above

As for `N#Cc1cc(C(=O)Nc2cc(F)c(=O)n(CC(F)F)c2)sc1C(F)(F)F` [Compound 82c, 4-cyano-N-[1-(2,2-difluoroethyl)-5-fluoro-6-oxopyridin-3-yl]-5-(trifluoromethyl)thiophene-2-carboxamide], the IC50 in assay [1] (Table 3c.1) was 9.88 nM; in the assay on H358 cells, over 10000 nM.

For the molecule `N#Cc1sc(C(=O)Nc2cc(F)c(=O)n(CCF)c2)cc1Cl` [Compound 139], the IC50 worked out at 19.6 nM in assay [1] (Table 3.1) and 25.3 nM at SMARCA2.

Consider `O=C(Nc1cc(F)c(=O)n(CC(F)F)c1)c1cc(Cl)c(C(F)(F)F)s1` [Compound 298, 4-Chloro-N-(1-(2,2-difluoroethyl)-5-fluoro-6-oxo-1,6-dihydropyridin-3-yl)-5-(trifluoromethyl)thiophene-2-carboxamide], for which the values for the IC50 (in assay [1] (Table 3.1); against SMARCA2; in the assay on H358 cells) were 24.1 nM, 47.1 nM and over 10000 nM, respectively.
